Several values for one entry are separate records, joined by “and”; a condition that tells them apart may be missing. Equal entries are not always repeated.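 Five compound concentrations were applied to cells in 96-well plates for 48 hours; endpoints were derived by simple linear interpolation of the resulting dose-response curve. GI50 marks 50% less growth. Definition used: TGI = concentration required for complete inhibition of growth.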
The compounds below were run on M14 melanoma (assay: inhibition of tumour cell growth, NCI panel, 48 h).
For Cc1cc(Nc2ccc(NC(=O)c3ccc(Nc4ccnc5ccccc45)cc3)cc2)nc(N)n1, the GI50 was 7.62 µM and the TGI was > 100 µM. With COc1cc(-c2oc(=O)ccc2C#Cc2ccccn2)cc(OC)c1OC the GI50 was 2.74 µM and the TGI was > 32.4 µM. With COC(=O)C1c2cc3c(cc2C(OC2OC(C)C(OC)C(C)(OC)C2OC)CC1(C)O)C(=O)c1c(O)cc2c(c1C3=O)OC1OC2(C)C(O)C([N+](C)(C)[O-])C1O (stereo not drawn) the TGI was 3.64 µM. For CC(C)N(C(=O)C12C3C4C1C1C4(C#N)C3C12C#N)C(C)C (stereo not drawn), the TGI was > 100 µM. In the case of O=C1CCC(Cl)=CC2CCCN12 (stereo not drawn), the TGI is reported as > 100 µM. With COc1ccc(/C=C\[N+](=O)[O-])cc1OC the GI50 was 1.82 µM and the TGI was 4.18 µM. c1ccc2cc(-c3cc4ccccc4s3)ccc2c1 was tested, and the TGI was > 100 µM. In the case of CC(C)C(CCl)NC(=O)c1cccc(C(=O)N[C@H](CCl)C(C)C)n1 (stereo in doubt), the TGI is reported as > 100 µM. NC(=O)/C=C/C(=O)c1c(Cl)cccc1Cl showed a GI50 of 1.45 µM and a TGI of 2.76 µM. For CCC(=O)CC(=O)CCC(=O)Nc1cc(C)ccc1C, the TGI was > 100 µM. In the case of NC(N)=N/N=C/c1c(-c2ccsc2)nc2sccn12, the GI50 is reported as 18.5 µM and the TGI is reported as 32.4 µM. In the case of CC(=O)Nc1ccc(S(=O)(=O)N2C(=O)CCC2C(=O)Nc2ccc(Br)cc2)cc1 (stereo not drawn), the GI50 is reported as 2.92 µM and the TGI is reported as 32.8 µM. Work on CC(=O)CCn1ncc(Cl)c(Cl)c1=O yielded a TGI of 29.7 µM. In the case of CO/N=C(/C)c1cccc(Nc2cc(-n3nnc4ccccc43)nc3ccccc23)c1, the GI50 is reported as 37.4 µM and the TGI is reported as > 100 µM. CN1CC(=O)N2Cc3ccccc3-n3cccc3C2C1 (stereo not drawn) was tested, and the TGI was > 100 µM. In the case of NC(=S)N/N=C/C(=O)O, the GI50 is reported as > 100 µM and the TGI is reported as > 100 µM.

What follows are compounds tested on NCI-H522 lung (assay: inhibition of tumour cell growth, NCI panel, 48 h).
For Clc1ccc2c(c1)[nH]c1c2nc2ccccn21, the TGI was 45.6 µM and 39.6 µM. In the case of CCOC(=O)c1cnc2c(ccc3[nH]n(C)nc32)c1=O, the TGI is reported as > 100 µM. NC(=S)N/N=C(\CC1OC(=O)c2ccccc21)c1ccc(Cl)cc1 (stereo not drawn) was tested, and the TGI was 63.8 µM. With COC(=O)C(C(=O)c1ccccc1)C(C(=O)C(=O)Nc1ccc(OC)cc1OC)C(=O)C(=O)c1ccc(C)cc1 (stereo not drawn) the TGI was > 100 µM. With CC1(C)COC(C2(C)C(=O)C=C(c3ccccc3)c3ccccc32)=N1 (stereo not drawn) the TGI was > 100 µM. For O=C(Nc1ccn(CCO)c(=O)n1)c1ccccc1, the TGI was > 100 µM. With O=C1CCC2(c3ccc(Cl)cc3)Nc3ncccc3N12 (stereo not drawn) the TGI was > 100 µM. COc1ccc(Sc2[nH]c(C(C)=O)c3ccccc23)cc1 gave a GI50 of 10.2 µM and a TGI of 36.1 µM. C#CCOc1cccc(-c2ncc3cc(NC(=O)CCl)ccc3n2)c1 showed a GI50 of 1.16 µM and a TGI of 2.51 µM. With CC12C/C(=C\c3ccccc3)C(=O)C3C1CCCC32 the TGI was > 100 µM. OC(CC1SCCCS1)c1ccccc1 (stereo not drawn) was tested, and the TGI was > 100 µM. With CCCCOC(=O)CNC(=O)OC/C=C/C#CC#C/C=C/COC(=O)NCC(=O)OCCCC the GI50 was > 100 µM and the TGI was > 100 µM. COc1ccc(OC)c2c1[nH]c(=O)c1c3ccccc3cn21 was tested, and the GI50 was 1.7 µM and the TGI was 3.48 µM. In the case of COc1cccc2c1C(=O)c1c(O)c3c(c(O)c1C2=O)C[C@@](O)(C(=O)CO)C[C@@H]3OC1CC(N)CC(C)O1 (stereo partly drawn), the GI50 is reported as 0.0339 µM and the TGI is reported as 0.179 µM and 0.303 µM. For O=C1c2ccccc2C(=O)N1CCn1ccc(NC(c2ccccc2)(c2ccccc2)c2ccccc2)nc1=O, the TGI was 45.9 µM. CC(C)(C)NNC(=O)CCn1[nH]c(=O)c(Cl)c(Cl)c1=O was tested, and the TGI was > 100 µM. With O=CCC1CCCCC1 the TGI was > 100 µM. For CN(C)CCNC(=O)c1cccc2ccc(-c3ccc(O)cc3)nc12, the GI50 was 2.26 µM and the TGI was 4.62 µM and 9.18 µM. CCC12CCCN(Cc3ccccc3)C1c1c(n(C)c3ccccc13)CC2 (stereo not drawn) was tested, and the TGI was 220 µM. Compound CSc1nc(=O)n(CCC#N)nc1SC has a TGI of 61.8 µM. For COc1cc(Nc2ncccc2C(=O)NCc2cn(Cc3cccc(Oc4ccccc4)c3)nn2)cc(OC)c1, the GI50 was 3.31 µM and the TGI was > 100 µM. Compound COC(=O)C1c2cc3c(cc2C(OC2OC(C)C(OC)C(C)(OC)C2OC)CC1(C)O)C(=O)c1c(O)cc2c(c1C3=O)OC1OC2(C)C(O)C([N+](C)(C)[O-])C1O (stereo not drawn) has a TGI of 0.809 µM. c1ccc2cc(-c3cc4ccccc4s3)ccc2c1 was tested, and the TGI was > 100 µM. In the case of CC(C)C(CCl)NC(=O)c1cccc(C(=O)N[C@H](CCl)C(C)C)n1 (stereo in doubt), the TGI is reported as > 100 µM. Compound NC(=O)/C=C/C(=O)c1c(Cl)cccc1Cl has a GI50 of 0.204 µM and a TGI of 0.432 µM. CCC(=O)CC(=O)CCC(=O)Nc1cc(C)ccc1C was tested, and the TGI was > 100 µM. For NC(N)=N/N=C/c1c(-c2ccsc2)nc2sccn12, the GI50 was 12.2 µM and the TGI was 30.5 µM. Work on CC(=O)Nc1ccc(S(=O)(=O)N2C(=O)CCC2C(=O)Nc2ccc(Br)cc2)cc1 (stereo not drawn) yielded a GI50 of 1.06 µM and a TGI of 3.6 µM. For CO/N=C(/C)c1cccc(Nc2cc(-n3nnc4ccccc43)nc3ccccc23)c1, the GI50 was > 100 µM and the TGI was > 100 µM. With NC(=S)N/N=C/C(=O)O the GI50 was > 100 µM and the TGI was > 100 µM.

The compounds below were run on OVCAR-4 ovarian (assay: inhibition of tumour cell growth, NCI panel, 48 h).
With NC(=S)N/N=C(\CC1OC(=O)c2ccccc21)c1ccc(Cl)cc1 (stereo not drawn) the TGI was 99 µM. COc1ccc2occ(CCC(=O)O)c2c1 was tested, and the TGI was > 100 µM. In the case of COC(=O)C(C(=O)c1ccccc1)C(C(=O)C(=O)Nc1ccc(OC)cc1OC)C(=O)C(=O)c1ccc(C)cc1 (stereo not drawn), the TGI is reported as > 100 µM. In the case of CC1(C)COC(C2(C)C(=O)C=C(c3ccccc3)c3ccccc32)=N1 (stereo not drawn), the TGI is reported as > 100 µM. With O=C(Nc1ccn(CCO)c(=O)n1)c1ccccc1 the TGI was > 100 µM. In the case of O=C1CCC2(c3ccc(Cl)cc3)Nc3ncccc3N12 (stereo not drawn), the TGI is reported as > 100 µM. For COc1ccc(Sc2[nH]c(C(C)=O)c3ccccc23)cc1, the GI50 was 13.3 µM and the TGI was 32 µM. For CC12C/C(=C\c3ccccc3)C(=O)C3C1CCCC32, the TGI was > 100 µM. OC(CC1SCCCS1)c1ccccc1 (stereo not drawn) was tested, and the TGI was > 100 µM. For CCCCOC(=O)CNC(=O)OC/C=C/C#CC#C/C=C/COC(=O)NCC(=O)OCCCC, the GI50 was > 100 µM and the TGI was > 100 µM. In the case of COc1ccc(OC)c2c1[nH]c(=O)c1c3ccccc3cn21, the GI50 is reported as 1.38 µM and the TGI is reported as 3.1 µM. In the case of COc1cccc2c1C(=O)c1c(O)c3c(c(O)c1C2=O)C[C@@](O)(C(=O)CO)C[C@@H]3OC1CC(N)CC(C)O1 (stereo partly drawn), the GI50 is reported as 0.0885 µM and the TGI is reported as 0.456 µM and 0.413 µM. O=C1c2ccccc2C(=O)N1CCn1ccc(NC(c2ccccc2)(c2ccccc2)c2ccccc2)nc1=O gave a TGI of 59.2 µM. In the case of CC(C)(C)NNC(=O)CCn1[nH]c(=O)c(Cl)c(Cl)c1=O, the TGI is reported as > 100 µM. O=CCC1CCCCC1 was tested, and the TGI was > 100 µM. CN(C)CCNC(=O)c1cccc2ccc(-c3ccc(O)cc3)nc12 was tested, and the TGI was 10.4 µM and 12.2 µM. For COc1cc(Nc2ncccc2C(=O)NCc2cn(Cc3cccc(Oc4ccccc4)c3)nn2)cc(OC)c1, the GI50 was 5.42 µM and the TGI was > 100 µM. COc1cc(-c2oc(=O)ccc2C#Cc2ccccn2)cc(OC)c1OC was tested, and the GI50 was 9.65 µM and the TGI was > 100 µM. COC(=O)C1c2cc3c(cc2C(OC2OC(C)C(OC)C(C)(OC)C2OC)CC1(C)O)C(=O)c1c(O)cc2c(c1C3=O)OC1OC2(C)C(O)C([N+](C)(C)[O-])C1O (stereo not drawn) was tested, and the TGI was > 100 µM. For CC(C)N(C(=O)C12C3C4C1C1C4(C#N)C3C12C#N)C(C)C (stereo not drawn), the TGI was > 100 µM. Work on COc1ccc(/C=C\[N+](=O)[O-])cc1OC yielded a GI50 of 14 µM and a TGI of 27.5 µM. In the case of c1ccc2cc(-c3cc4ccccc4s3)ccc2c1, the TGI is reported as > 100 µM. For CC(C)C(CCl)NC(=O)c1cccc(C(=O)N[C@H](CCl)C(C)C)n1 (stereo in doubt), the TGI was > 100 µM. Work on NC(N)=N/N=C/c1c(-c2ccsc2)nc2sccn12 yielded a GI50 of 13.6 µM and a TGI of 27.1 µM. Work on CC(=O)CCn1ncc(Cl)c(Cl)c1=O yielded a TGI of 21.9 µM. CO/N=C(/C)c1cccc(Nc2cc(-n3nnc4ccccc43)nc3ccccc23)c1 was tested, and the GI50 was 65.6 µM and the TGI was > 100 µM. In the case of CN1CC(=O)N2Cc3ccccc3-n3cccc3C2C1 (stereo not drawn), the TGI is reported as > 100 µM. NC(=S)N/N=C/C(=O)O was tested, and the GI50 was 37.5 µM and the TGI was > 100 µM.

Each compound was assayed on OVCAR-8 ovarian (assay: inhibition of tumour cell growth, NCI panel, 48 h).
In the case of Clc1ccc2c(c1)[nH]c1c2nc2ccccn21, the GI50 is reported as 44.5 µM and 17 µM and the TGI is reported as > 100 µM and 33.1 µM. For CCOC(=O)c1cnc2c(ccc3[nH]n(C)nc32)c1=O, the TGI was > 100 µM. In the case of NC(=S)N/N=C(\CC1OC(=O)c2ccccc21)c1ccc(Cl)cc1 (stereo not drawn), the TGI is reported as 35.6 µM. In the case of COc1ccc2occ(CCC(=O)O)c2c1, the TGI is reported as > 100 µM. In the case of COC(=O)C(C(=O)c1ccccc1)C(C(=O)C(=O)Nc1ccc(OC)cc1OC)C(=O)C(=O)c1ccc(C)cc1 (stereo not drawn), the TGI is reported as > 100 µM. In the case of CC1(C)COC(C2(C)C(=O)C=C(c3ccccc3)c3ccccc32)=N1 (stereo not drawn), the TGI is reported as > 100 µM. With O=C(Nc1ccn(CCO)c(=O)n1)c1ccccc1 the TGI was > 100 µM. O=C1CCC2(c3ccc(Cl)cc3)Nc3ncccc3N12 (stereo not drawn) was tested, and the TGI was > 100 µM.
